Values quoted from earlier work, collected in US20040146462A1, “Contrast agents” (priority 1998, published 2004).

System: coronary blood flow in healthy myocardial tissue
Conditions: administration of adenosine

For Nc1ncnc2c1ncn2[C@@H]1O[C@H](CO)[C@@H](O)[C@H]1O [adenosine], the “increase in coronary blood flow in healthy myocardial tissue” value is given as “in excess of fourfold”.
